Assays:
interleukin-6 (IL-6) = assay: TPA-induced IL-6 production in peritoneal macrophage (ELISA); format: cell-based; conditions: mouse peritoneal macrophage, final concentrations 20 μM and 10 μM, 14 hours, IL-6 in culture supernatant by ELISA
Protocol: Four milliliters of a 10% fetal bovine serum-containing RPMI 1640 medium (manufactured by Bio Whittaker, 12-702F) was intraperitoneally injected to ddy mouse (Nippon SLC, female, 7-weeks old), and the mouse was well massaged, and the medium was taken out to obtain peritoneal cells. The peritoneal cells were suspended in the 10% fetal bovine serum-containing RPMI 1640 medium so as to have a concentration of 10^6 cells/ml, and dispensed into 48-well microtiter plate in a volume of 500 μl each. The peritoneal cells were cultured at 37° C. for 2 hours in the presence of 5% CO2 gas. Thereafter, the culture supernatant was removed to give adherent cells to be used as peritoneal macrophage. To each well was freshly dispensed a Dulbecco's modified Eagle's medium (manufactured by Bio Whittaker; 12-917F) without phenol red containing 10% fetal bovine serum and 2 mM L-glutamine in a volume of 500 μl. […] The content of interleukin-6 (IL-6) in the culture supernatant was assayed by enzyme immuno-sandwich assay (ELISA: Matched antibody Pair SamplePak mouse IL-6, manufactured by Endogen). Here, the group with no addition of DGE and TPA aqueous solution (control) was set as a negative control, and the group with addition of TPA aqueous solution alone (control+TPA) was set as a positive control. In addition, all of the assays were carried out twice.

TNFα = assay: LPS-stimulated TNFα production in monocytes (ELISA); format: cell-based; conditions: human monocytes, final concentration 10 μM, 20 μM or 40 μM, 5 hours, then LPS 4 hours
Protocol: PBMCs were isolated in the same manner as in item (1) of Example 4. PBMCs were suspended in RPMI 1640 medium containing 5% human serum of blood type-AB, 0.1 mM nonessential amino acid, 1 mM sodium pyruvate, 2 mM L-glutamine (hereinabove manufactured by Bio Whittaker), 10 mM HEPES (manufactured by nakalai tesque), and 1% streptomycin-penicillin (manufactured by Gibco BRL) (hereinafter simply referred to as “5HRPMI medium”) so as to have a concentration of 2×10^6 cells/ml. Thereafter, the suspension was spread on a 24-well cell culture plate (manufactured by Falcon) in a volume of 1 ml/well, and the cells were incubated in a wet-type incubator at 37° C. and 5% CO2 for 1.5 hours. After 1.5 hours, the non-adherent cells were removed by suction, and each well was washed with RPMI 1640 medium, and 1 ml of the 5HRPMI medium was added to the wells, to give monocytes.
To the monocytes obtained above was added in each well 10 μl of a 1 mM, 2 mM or 4 mM aqueous DGE solution (each having a final concentration of 10 μM, 20 μM or 40 μM), or a 5 mM, 10 mM or 20 mM aqueous agarobiose solution (each having a final concentration of 50 μM, 100 μM or 200 μM), or 10 μl of water as a control (i.e. each of concentrations of DGE and agarobiose being 0 μM), and the cells were incubated in a wet-type incubator at 37° C. and 5% CO2 for 5 hours. […]

## O=C1C=CC(CO)OC1O [DGE, L-glycero-1,5-epoxy-1αβ,6-dihydroxy-cis-hex-3-en-2-one]
interleukin-6 (IL-6)
  inhibition of TPA-induced IL-6 production: inhibition of TPA-induced IL-6 production was found DGE-concentration dependently
TNFα
  inhibition of LPS-stimulated TNFα production: inhibition

Source: US20030158250A1, “Agents correcting gene expression regulatory error” (priority 2000, published 2003)
